According to US9169217B2, “Arylalkyl esters of 4-amino-6-(substituted phenyl)-picolinates and 6-amino-2-(substituted phenyl)-pyrimidinecarboxylates and their use as selective herbicides for crops” (Dow AgroSciences LLC, priority 2011, dated 2015):

Experiments:
Assay type in all cases: in vivo
[1] = test system: Stellaria media (Chickweed, common); experiment: General postemergence herbicidal activity (Example 13); conditions: post-emergent spray, 70 g ai/ha, 14 DAA
Protocol: (§1) Seeds or nutlets of the desired test plant species were planted in Sun Gro Metro-Mix® 360 planting mixture, which typically has a pH of 6.0 to 6.8 and an organic matter content of about 30 percent, in plastic pots with a surface area of 84.6 square centimeters (cm^2). When required to ensure good germination and healthy plants, a fungicide treatment and/or other chemical or physical treatment was applied. The plants were grown for 7-31 days (d) in a greenhouse with an approximate 15 hour (h) photoperiod which was maintained at about 23-29° C. during the day and 22-28° C. during the night. Nutrients and water were added on a regular basis and supplemental lighting was provided with overhead metal halide 1000-Watt lamps as necessary. The plants were employed for testing when they reached the first or second true leaf stage.
(§2) Treatments consisted of esters of compounds 33 and 39 and F and G. Compound F is methyl 6-amino-2-(4-chloro-2-fluoro-3-methoxyphenyl)-5-methoxypyrimidine-4-carboxylate; and compound G is methyl 4-amino-3-chloro-6-(4-chloro-2-fluoro-3-methoxyphenyl)picolinate. A weighed amount, determined by the highest rate to be tested, of each test compound was placed in a 25 mL glass vial and was dissolved in 4 mL of a 97:3 v/v (volume/volume) mixture of acetone and dimethyl sulfoxide (DMSO) to obtain concentrated stock solutions. […] The concentrated stock solutions obtained were diluted with 20 mL of an aqueous mixture containing acetone, water, isopropyl alcohol, DMSO, Atplus 411F crop oil concentrate, and Triton® X-155 surfactant in a 48.5:39:10:1.5:1.0:0.02 v/v ratio to obtain spray solutions containing the highest application rates. Additional application rates were obtained by serial dilution of 12 mL of the high rate solution into a solution containing 2 mL of a 97:3 v/v (volume/volume) mixture of acetone and DMSO and 10 mL of an aqueous mixture containing acetone, water, isopropyl alcohol, DMSO, Atplus 411F crop oil concentrate, and Triton® X-155 surfactant in a 48.5:39:10:1.5:1.0:0.02 v/v ratio to obtain ½×, ¼×, ⅛× and 1/16× rates of the high rate. Compound requirements are based upon a 12 mL application volume at a rate of 187 liters per hectare (L/ha). Formulated compounds were applied to the plant material with an overhead Mandel track sprayer equipped with 8002E nozzles calibrated to deliver 187 L/ha over an application area of 0.503 square meters (m^2) at a spray height of 18 inches (43 cm) above the average plant canopy height. Control plants were sprayed in the same manner with the solvent blank.
(§3) The treated plants and control plants were placed in a greenhouse as described above and watered by sub-irrigation to prevent wash-off of the test compounds. After 14 d, the condition of the test plants as compared with that of the untreated plants was determined visually and scored on a scale of 0 to 100 percent where 0 corresponds to no injury and 100 corresponds to complete kill.

[2] = test system: Oryza sativa (Rice); experiment: as above; conditions: post-emergent spray, 70 g ai/ha, 14 DAA; crop (rice)
Protocol: as §1, §2, §3

[3] = test system: Viola tricolor (Pansy, wild); experiment: as above; conditions: post-emergent spray, 70 g ai/ha, 14 DAA
Protocol: as §1, §2, §3

[4] = test system: Triticum aestivum (Wheat, spring); experiment: as above; conditions: post-emergent spray, 70 g ai/ha, 14 DAA; crop (spring wheat)
Protocol: as §1, §2, §3

[5] = test system: Avena fatua (Oat, wild); experiment: Postemergence herbicidal activity in cereal crops (Example 14); conditions: wheat cropping systems, postemergence spray, 35 g ae/ha, 21 DAA
[6] = test system: Lolium multiflorum (Ryegrass, Italian); experiment: as above; conditions: wheat cropping systems, postemergence spray, 17.5 g ae/ha, 21 DAA
[7] = test system: Setaria viridis (Foxtail, green); experiment: as above; conditions: wheat cropping systems, postemergence spray, 17.5 g ae/ha, 21 DAA

COC(=O)c1nc(-c2ccc(Cl)c(OC)c2F)nc(N)c1OC [Compound F, methyl 6-amino-2-(4-chloro-2-fluoro-3-methoxyphenyl)-5-methoxypyrimidine-4-carboxylate, reference compound]
Visual Injury (%) STEME [1]: 90%
Visual Injury (%) ORYSA [2]: 75%
Visual Injury (%) VIOTR [3]: 80%
Visual Injury (%) TRZAS [4]: 70%
Visual Injury (%) AVEFA [5]: 20%
Visual Injury (%) LOLMU [6]: 60%
Visual Injury (%) SETVI [7]: 85%
